Test results as given in patent US20020198315A1, “Salts of peptides with carboxy-terminated polyesters” (priority 1992, published 2002).

Key:
[1] = Dissolution / solubility in dichloromethane; assay type: physicochemical
Method: To this solution was added trifluoroacetic acid (50 μl), and the mixture was stirred vigorously.
The drug solution was added to the copolymer solution and was mixed thoroughly. This mixture was then added dropwise to liquid nitrogen to freeze it as small beads. The solid material was freeze dried for two days using an Edwards high vacuum freeze drier, and the dried material was further dried at 50-55° C. in a vacuum oven for 24 hours.
The peptide known as Substance P, in the form of its acetate salt (ex Sigma, 2 mg) was added to dichloromethane (3 ml) and thoroughly agitated.
Lys^8-vasopressin acetate salt (2 mg, ex Sigma) was added to dichloromethane (3 ml) and agitated.
(i) Dichloromethane (4 ml) was added to a freeze-dried preparation of ZD6003 (39.72 mg).
A lactide/glycolide copolymer (75/25, 364.1 mg, Mw=16,800 by size exclusion chromatography, polydispersity=2.2, ex Boehringer Ingelheim) was added.

[2] = cited from earlier work

## CC(C)C[C@H](NC(=O)[C@@H](COC(C)(C)C)NC(=O)[C@H](Cc1ccc(O)cc1)NC(=O)[C@H](CO)NC(=O)[C@H](Cc1c[nH]c2ccccc12)NC(=O)[C@H](Cc1cnc[nH]1)NC(=O)[C@@H]1CCC(=O)N1)C(=O)N[C@@H](CCCNC(=N)N)C(=O)N1CCC[C@H]1C(=O)NNC(N)=O [Goserelin acetate]
40° C., stirred, aliquots after 2 and 9 Days, limit of detection 0.2 μg/ml
  goserelin in benzyl benzoate supernatant, in words: No goserelin was detectable in either sample
At 40° C.
  equilibrium solubility of goserelin in benzyl benzoate (estimated): less than 0.2 μg/mg
Lipophilic solvents such as benzyl benzoate
  solubility in benzyl benzoate, in words: not soluble

## [Het^−1, Arg^11, Ser^17,27,60,65] human G-CSF (granulocyte-colony stimulating factor) modified with polyethylene glycol 5000 [ZD6003]
[1]
  behaviour in dichloromethane (dissolves or not), in words: opaque dispersion of drug in the solvent

## Substance P
[1]
  behaviour in dichloromethane (dissolves or not), in words: showed no indication of dissolving

## CC(C)C[C@H](NC(=O)[C@@H](COC(C)(C)C)NC(=O)[C@H](Cc1ccc(O)cc1)NC(=O)[C@H](CO)NC(=O)[C@H](Cc1c[nH]c2ccccc12)NC(=O)[C@H](Cc1cnc[nH]1)NC(=O)[C@@H]1CCC(=O)N1)C(=O)N[C@@H](CCCNC(=N)N)C(=O)N1CCC[C@H]1C(=O)NNC(N)=O [goserelin, [D-Ser(Bu^t)^6, Azgly^10]-LHRH]
[2]
  metabolic half-life: 4 to 6 h

## Lys^8-vasopressin acetate salt
[1]
  behaviour in dichloromethane (dissolves or not), in words: showed no indication of dissolving
